Test results taken from article PMC5007466, “VCP recruitment to mitochondria causes mitophagy impairment and neurodegeneration in models of Huntington's disease” (Nature Communications, 2016).

Key:
[1] = test system: HdhQ111 / HdhQ7 mouse striatal cells; assay: VCP mitochondrial level, mouse striatal cells (western blot); assay type: cell-based
Method: Immortalized striatal cell lines HdhQ111 mutant and HdhQ7 wt cells were obtained from the CHDI Foundation. Cells were cultured in DMEM supplemented with 10% FBS, 100 μg/ml penicillin, 100 μg ml^−1 streptomycin, and 400 μg ml^−1 G418. Cells were grown at 33 °C in a 5% CO2 incubator. Cells within 14 passages were used in all experiments.
For silencing Htt and VCP in HD striatal cells, control siRNA, mouse Htt and mouse VCP siRNA were purchased from Thermo Fisher Scientific. HdhQ7 and HdhQ111 cells were transfected either with control siRNA, or Htt or VCP siRNA using TransIT-TKO Transfection Reagent (Mirus Bio, LLC), according to the manufacturer's instructions. The sequences for the siRNAs used in this study are as follows: mouse Htt, 5′-[…]-3′; Mouse VCP, 5′-GAGAGCAACCUUCGUAAG-3′; control non-targeting siRNA, 5′-TTCTCCGAACGTGTCACGT-3′.
Cells were washed with cold PBS and incubated on ice for 30 min in a lysis buffer (250 mM sucrose, 20 mM HEPES-NaOH, pH 7.5, 10 mM KCl, 1.5 mM MgCl2, 1 mM EDTA, protease inhibitor cocktail and phosphatase inhibitor cocktail). Mouse brains were minced and homogenized in the lysis buffer and then placed on ice for 30 min. Collected cells or tissue were disrupted 20 times by repeated aspiration through a 25-gauge needle, followed by a 30-gauge needle. The homogenates were spun at 800 g for 10 min at 4 °C, and the resulting supernatants were spun at 10,000 g for 20 min at 4 °C. The pellets were washed with lysis buffer and spun at 10,000 g again for 20 min at 4 °C. The final pellets were suspended in lysis buffer containing 1% Triton X-100 and were mitochondrial-rich lysate fractions. The supernatant was centrifuged at 100,000 g, 4 °C, for 1 h, the pellets were suspended in lysis buffer containing 1% Triton X-100 as ER fractions. The final supernatant was cytosolic fractions. The mitochondrial proteins VDAC, the ER protein WFS1 and the cytosolic protein Enolase were used as loading controls for mitochondrial, ER and cytosolic fractions, respectively.
Protein concentrations were determined by Bradford assay. […]

HdhQ7 striatal cells = assay: Total GFP-LC3B protein level; assay type: cell-based, mouse; details: Flag-VCP + GFP-LC3B, 36 h
Method: Protein concentrations were determined by Bradford assay. Protein was resuspended in Laemmli buffer, loaded on SDS–PAGE, and transferred onto nitrocellulose membranes. Membranes were probed with the indicated antibodies, followed by visualization with ECL. Representative blots have been cropped for presentation. Images of full-size blots are presented in Supplementary Fig. 9. […]
mouse striatal cells were treated with thapsigargin (1μM) or tunicamycin (10μ g/ml) for 16 hours i n the presence or absence of HV -3 (3 µM). GRP78 total protein levels were determined by western blot analysis. Representative blots of three independent experiments are shown. Actin was used here as a loading control. (b) Tw e n t y -four hours of serum starvation was performed in HD mouse striatal cells.
Caspase-3 activity analysis was performed in the indicated groups. Data are mean ± SEM of three independent experiments. (c) Flag-VCP and GFP-LC3B were co-transfected into HdhQ7 striatal cells.
Total lysates were isolated after 36 hours of transfection. The GFP -LC3B levels were examined by western blot analysis. Actin was used as a loading control. Histogram: quantitation of GFP-LC3B total protein level. Data are mean ± SEM of three independent experiments.
(1 picture or pasted object on this page, not shown here)

[2] = test system: HdhQ111 mouse striatal cells; assay: GFP-LC3B puncta; assay type: cell-based; details: 3 uM/day for 3 days
Method: Figure 5 Treatment of HV-3 reduces excessive mitophagy in HD cell cultures and HD mouse brains. (a) HdhQ7 and HdhQ111 cells were treated with control siRNA (con) or VCP siRNA (siVCP) for 48 h. Mitochondria were isolated and LC3 mitochondrial levels were determined by WB. Representative blots are from three independent experiments. The quantitation of LC3 II levels on mitochondria is provided on the right. VADC was used as a loading control. (b) Flag-VCP and GFP-LC3B were co-transfected into wild-type striatal cells. Mitochondria were isolated after 36 h of transfection. The GFP-LC3B levels on mitochondria were examined by WB. VDAC was used as a loading control. Representative blots are from three independent experiments. Histogram: quantitation of GFP-LC3B mitochondrial protein level. HdhQ7 and HdhQ111 cells were treated with control peptide TAT or peptide HV-3 (3 uM/day for 3 days). (c) HdhQ111 cells were transfected with GFP-LC3B for 24 h. The number of GFP-LC3B puncta was quantitated and shown in the histogram. Scale bars: 10 μm. (d) Enzyme activity of lysosomal Cathepsin B was measured using a Cathepsin B assay kit. […] (e) Mitochondrial mass was measured by the fluorescent density of Mitotracker green. […] Histogram: the number of mitophagosomes per 100 μm^2 was counted and quantitated. Fifteen random areas in the striatum of each animal were analyzed. […]

CSCC[C@H](NC(=O)[C@@H](NC(=O)[C@H](CC(C)C)NC(=O)[C@@H](NC(=O)[C@H](Cc1c[nH]cn1)NC(=O)CCCCCNC(=O)[C@H](CCCNC(=N)N)NC(=O)[C@H](CCCNC(=N)N)NC(=O)[C@H](CCCNC(=N)N)NC(=O)[C@H](CCC(N)=O)NC(=O)[C@H](CCCNC(=N)N)NC(=O)[C@H](CCCNC(=N)N)NC(=O)[C@H](CCCCN)NC(=O)[C@H](CCCCN)NC(=O)[C@H](CCCNC(=N)N)NC(=O)CNC(=O)[C@@H](N)Cc1ccc(O)cc1)C(C)C)C(C)C)C(=O)N[C@@H](CS)C(=O)N[C@@H](C)C(=O)N[C@H](C(N)=O)[C@@H](C)O [HV-3]
VCP translocation to mitochondria ([1]; HdhQ111 cells, HV-3 3 μM per day for 3 days versus TAT, n=3): abolished VCP translocation to the mitochondria | VCP mitochondrial levels, wt ([1]; wt counterparts of the HD models): only minor effects | total GFP-LC3B protein level (HdhQ7 striatal cells): no effect on the total protein level of GFP-LC3B | number of GFP-LC3B puncta [2]: reduced by treatment with HV-3
